Data reported in publication PMC7216583 (Parasites & Vectors, 2020).
Structures can show the parent of a compound that is named as a salt. Where two headings read alike, the source gives them in different places.

How the values were obtained:
[1] = test system: non-muscle myosin II ATPases; parameters: method as in vendor brief description; details: ref vendor brief description; cited from earlier work
[2] = test system: Toxoplasma gondii RH-2F tachyzoites; assay: microbe, parasite or virus in culture; details: 72 h
[3] = target: transient receptor potential vanilloid-1 (TRPV1); parameters: method as in vendor brief description; details: ref vendor brief description; cited from earlier work
[4] = test system: PDE4; parameters: method as in vendor brief description; details: ref vendor brief description; cited from earlier work
[5] = test system: TNF-α; parameters: method as in vendor brief description; details: ref vendor brief description; cited from earlier work
[6] = test system: c-Raf; parameters: method as in vendor brief description; details: ref vendor brief description; cited from earlier work
[7] = test system: CSF-1R; parameters: method as in vendor brief description; details: ref vendor brief description; cited from earlier work
[8] = test system: B-Raf; parameters: method as in vendor brief description; details: ref vendor brief description; cited from earlier work
[9] = test system: Abl; parameters: method as in vendor brief description; details: ref vendor brief description; read-out: IC50 Abl-1; cited from earlier work
[10] = test system: cytomegalovirus (CMV); parameters: method as in vendor brief description; details: target not stated with the value; ref vendor brief description; cited from earlier work
[11] = target: αvβ5 receptor; parameters: method as in vendor brief description; details: ref vendor brief description; cited from earlier work
[12] = test system: Toxoplasma gondii RH-2F tachyzoites; details: 72 h, 5 μM
[13] = target: αvβ3 receptor; parameters: method as in vendor brief description; details: ref vendor brief description; cited from earlier work
[14] = test system: SGLT2; parameters: method as in vendor brief description; details: ref vendor brief description; cited from earlier work
[15] = test system: B-RafV600E; parameters: method as in library vendor description; details: ref library vendor description; cited from earlier work
[16] = test system: PPARδ; parameters: method as in vendor brief description; details: ref vendor brief description; cited from earlier work
[17] = test system: IGF-1R; parameters: method as in library vendor description; details: ref library vendor description; cited from earlier work
[18] = test system: IR; parameters: method as in library vendor description; details: ref library vendor description; cited from earlier work
[19] = in vitro; details: human, Host viability (%) mean
[20] = test system: HDAC10; parameters: method as in library vendor description; details: ref library vendor description; cited from earlier work
[21] = test system: c-Met; parameters: method as in library vendor description; details: ref library vendor description; cited from earlier work
[22] = test system: HDAC; parameters: method as in library vendor description; details: ref library vendor description; cited from earlier work
[23] = test system: ET-B; parameters: method as in vendor brief description; details: ref vendor brief description; read-out: IC50 endothelin (ET) B receptor; cited from earlier work
[24] = target: endothelin receptor-A; parameters: method as in vendor brief description; details: ref vendor brief description; cited from earlier work
[25] = test system: human cathepsin K; parameters: method as in library vendor description; details: ref library vendor description; cited from earlier work
[26] = test system: rabbit cathepsin K; parameters: method as in library vendor description; details: ref library vendor description; cited from earlier work
[27] = target: cannabinoid type 1 receptor; parameters: method as in vendor brief description; details: ref vendor brief description; cited from earlier work
[28] = test system: 5-HT2B; parameters: method as in vendor brief description; details: ref vendor brief description; cited from earlier work
[29] = target: influenza viral neuraminidase; parameters: method as in vendor catalog number S2716; details: median; compound library brief description; ref vendor catalog number S2716; read-out: IC50 of median (influenza viral neuraminidase inhibitor); cited from earlier work
[30] = test system: CXCL12-mediated chemotaxis; details: read-out: IC50 CXCL12-mediated chemotaxis; ref vendor brief description; cited from earlier work
[31] = test system: CXCR4; parameters: method as in vendor brief description; details: ref vendor brief description; cited from earlier work
[32] = target: S. aureus ribosomes; parameters: method as in vendor catalog number S4056; details: similar potencies on both ribosomes; compound library brief description; ref vendor catalog number S4056; read-out: Kd (binds to S. aureus ribosomes); cited from earlier work
[33] = test system: Pim1; details: read-out: IC50 Pim1; ref vendor brief description; cited from earlier work
[34] = test system: ALK; parameters: method as in library vendor description; details: ref library vendor description; cited from earlier work
[35] = target: gastric H+, K+-ATPase; parameters: method as in vendor brief description; details: at pH 6.5; ref vendor brief description; cited from earlier work
[36] = target: P-glycoprotein; parameters: method as in vendor brief description; details: ref vendor brief description; cited from earlier work
[37] = target: secretory phospholipase A2 (sPLA); parameters: method as in library vendor description; details: ref library vendor description; cited from earlier work
[38] = test system: P-gp; parameters: method as in library vendor description; details: ref library vendor description; cited from earlier work
[39] = test system: hedgehog; parameters: method as in library vendor description; details: ref library vendor description; cited from earlier work
[40] = test system: 5-HT(1B); parameters: method as in vendor brief description; details: ref vendor brief description; cited from earlier work
[41] = test system: SERT; parameters: method as in vendor brief description; details: ref vendor brief description; cited from earlier work
[42] = test system: 5-HT1A; parameters: method as in vendor brief description; details: ref vendor brief description; cited from earlier work
[43] = target: 5-HT7 receptor; parameters: method as in vendor brief description; details: ref vendor brief description; cited from earlier work
[44] = test system: 5-HT3A; parameters: method as in vendor brief description; details: ref vendor brief description; read-out: IC50 5-HT(3A); cited from earlier work
[45] = target: epidermal growth factor receptor (EGFR); parameters: method as in vendor brief description; details: ref vendor brief description; read-out: IC50 EFGR; cited from earlier work
[46] = test system: JAK1; parameters: method as in vendor brief description; details: ref vendor brief description; cited from earlier work
[47] = test system: JAK3; parameters: method as in vendor brief description; details: ref vendor brief description; cited from earlier work
[48] = test system: TGM2; parameters: method as in vendor brief description; details: ref vendor brief description; cited from earlier work
[49] = read-out: Parasite inhibition (%) mean, preliminary screen of compound library, mean
[50] = read-out: Parasite inhibition (%) mean, preliminary screen, mean

Cc1ccc2c(c1)C(=O)[C@]1(O)CCN(c3ccccc3)C1=N2 [(−)-Blebbistatin]
IC50 [1]: 500 to 5000 nM
inhibition of growth at 5 µM [2, 49]: -56.7%

CC(=O)Nc1nc2c(Oc3cc(-c4ccc(C(F)(F)F)cc4)ncn3)cccc2s1 [AMG-517]
IC50 [3]: < 10 nM
inhibition of growth at 5 µM [2, 49]: 0.6%

CCOc1cc([C@@H](CS(C)(=O)=O)N2C(=O)c3cccc(NC(C)=O)c3C2=O)ccc1OC [Apremilast (CC-10004)]
inhibition of growth at 5 µM [2, 49]: -1.4%
IC50 [4]: 74 nM
IC50 [5]: 77 nM

COc1cc2ncnc(Oc3cccc(NC(=O)Nc4cc(C(C)(C)C(F)(F)F)on4)c3)c2cc1OC [CEP-32496]
IC50 [6]: 39 nM
inhibition of growth at 5 µM [2, 49]: 0%
IC50 [7]: 9 nM
IC50 [8]: 36 nM
IC50 [9]: 3 nM

Nc1ccn(C[C@@H](CO)OCP(=O)(O)O)c(=O)n1 [Cidofovir (Vistide)]
inhibition of growth at 5 µM [2, 49]: 0.8%
IC50 [10]: 940 nM

CC(C)[C@H]1C(=O)N[C@@H](CCCNC(=N)N)C(=O)NCC(=O)N[C@@H](CC(=O)O)C(=O)N[C@H](Cc2ccccc2)C(=O)N1C [Cilengitide (EMD 121974, NSC 707544)]
IC50 [11]: 79 nM
Parasite inhibition (%) mean [12]: 4.9%

OC[C@H]1O[C@@H](c2ccc(Cl)c(Cc3ccc(O[C@H]4CCOC4)cc3)c2)[C@H](O)[C@@H](O)[C@@H]1O [Empagliflozin (BI10773)]
inhibition of growth at 5 µM [2, 49]: 3.8%
IC50 [14]: 3.1 nM

OCCn1cc(-c2ccc3c(c2)CC/C3=N\O)c(-c2ccncc2)n1 [GDC-0879]
inhibition of growth at 5 µM [2, 50]: 7.9%
IC50 [15]: 0.13 nM

O=C(NCCS(=O)(=O)c1ccc(C(F)(F)F)cn1)c1ccc(Cl)cc1 [GSK3787]
pIC50 PPARδ [16]: GSK3787 is as a potent and selective antagonist of PPARδ with pIC50 of 6.6.
inhibition of growth at 5 µM [2, 49]: 9%

CCc1cc(Nc2nccc(-c3c(-c4ccc(OC)c(C(=O)Nc5c(F)cccc5F)c4)nc4ccccn34)n2)c(OC)cc1N1CCC(N2CCN(S(C)(=O)=O)CC2)CC1 [GSK1904529A]
IC50 [17]: 27 nM
IC50 [18]: 25 nM
inhibition of growth at 5 µM [2, 50]: 70.6%
viability at 72 h [19]: 76.8%

Cn1cc(CNCC2CCN(c3ncc(C(=O)NO)cn3)CC2)c2ccccc21 [JNJ-26481585]
IC50 [20]: 0.46 nM
inhibition of growth at 5 µM [2, 50]: 79.4%
viability at 72 h [19]: 70.5%

Cn1cc(-c2ccc3nnc(C(F)(F)c4ccc5ncccc5c4)n3n2)cn1 [JNJ-38877605]
inhibition of growth at 5 µM [2, 50]: 84.3%
viability at 72 h [19]: 77.5%
IC50 [21]: 4 nM

O=C(/C=C/c1ccc(CN(CCO)CCc2c[nH]c3ccccc23)cc1)NO [LAQ824 (NVP-LAQ824, Dacinostat)]
IC50 [22]: 32 nM
inhibition of growth at 5 µM [2, 50]: 60.4%

CCCNS(=O)(=O)Nc1ncnc(OCCOc2ncc(Br)cn2)c1-c1ccc(Br)cc1 [Macitentan]
IC50 [23]: 391 nM
inhibition of growth at 5 µM [2, 49]: 12.3%
IC50 [24]: 0.5 nM

CC(C)(F)C[C@H](N[C@@H](c1ccc(-c2ccc(S(C)(=O)=O)cc2)cc1)C(F)(F)F)C(=O)NC1(C#N)CC1 [Odanacatib (MK 0822)]
IC50 [25]: 0.2 nM
inhibition of growth at 5 µM [2, 50]: -9.7%
IC50 [26]: 1 nM

CCNC1(C(N)=O)CCN(c2ncnc3c2nc(-c2ccccc2Cl)n3-c2ccc(Cl)cc2)CC1 [Otenabant (CP-945598) HCl]
Ki [27]: 0.7 nM
inhibition of growth at 5 µM [2, 49]: 0.3%

N#Cc1cc(CN2CCC(Nc3ncnc4sc(Cl)cc34)CC2)ccc1F [PRX-08066]
IC50 [28]: 3.4 nM
inhibition of growth at 5 µM [2, 49]: 40.5%

CCC(CC)[C@H](NC(C)=O)[C@@H]1[C@H](O)[C@@H](C(=O)O)C[C@H]1NC(=N)N [Peramivir Trihydrate]
inhibition of growth at 5 µM [2, 49]: -0.4%
IC50 [29]: 0.09 nM

c1cc(CN2CCCNCCNCCCNCC2)ccc1CN1CCCNCCNCCCNCC1 [Plerixafor (AMD3100)]
inhibition of growth at 5 µM ([2]; read-out: Parasite inhibition (%) mean): 12.9%
IC50 [30]: 5.7 nM
IC50 [31]: 44 nM

C=C[C@]1(C)C[C@@H](OC(=O)CS[C@@H]2C[C@H]3CC[C@@H](C2)N3C)[C@]2(C)[C@H](C)CC[C@]3(CCC(=O)[C@H]32)[C@@H](C)[C@@H]1O [Retapamulin]
Kd [32]: 3 nM

O=C1NC(=O)/C(=C\c2cccc(C(F)(F)F)c2)S1 [SMI-4a]
inhibition of growth at 5 µM [2, 49]: 8.9%
IC50 [33]: 17 nM

COc1cc(N2CCC(N3CCN(C)CC3)CC2)ccc1Nc1ncc(Cl)c(Nc2ccccc2S(=O)(=O)C(C)C)n1 [TAE684 (NVP-TAE684)]
inhibition of growth at 5 µM [2, 50]: 6.8%

CNCc1cc(-c2ccccc2F)n(S(=O)(=O)c2cccnc2)c1 [TAK-438]
IC50 [35]: 19 nM
inhibition of growth at 5 µM [2, 49]: -9.6%

COc1cc2c(cc1OC)CN(CCc1ccc(NC(=O)c3cc(OC)c(OC)cc3NC(=O)c3cnc4ccccc4c3)cc1)CC2 [Tariquidar]
inhibition of growth at 5 µM [2, 49]: 0.4%
Kd [36]: 5.1 nM

CCc1c(C(=O)C(N)=O)c2c(OCC(=O)O)cccc2n1Cc1ccccc1 [Varespladib (LY315920)]
inhibition of growth at 5 µM [2, 50]: 36.6%
IC50 [37]: 7 nM

CS(=O)(=O)c1ccc(C(=O)Nc2ccc(Cl)c(-c3ccccn3)c2)c(Cl)c1 [Vismodegib (GDC-0449)]
inhibition of growth at 5 µM [2, 50]: 25.5%
IC50 [39]: 3 nM

Cc1ccc(Sc2ccccc2N2CCNCC2)c(C)c1 [Vortioxetine (Lu AA21004) hydrobromide]
IC50 [40]: 33 nM
IC50 [41]: 1.6 nM
inhibition of growth at 5 µM [2, 49]: 66.8%
IC50 [42]: 15 nM
IC50 [43]: 19 nM
IC50 [44]: 3.7 nM

CC(C)N(CCC(=O)c1ccc2ccccc2c1)Cc1ccccc1 [ZM 39923 HCl]
IC50 [45]: 5600 nM
IC50 [46]: 4400 nM
inhibition of growth at 5 µM [2, 49]: 13.9%
IC50 [47]: 7100 nM
IC50 [48]: 10 nM
